Converted amounts (≈) assume the structure as drawn.
Assays:
Escherichia coli [1] = assay: In vitro antibacterial evaluation: minimum inhibitory concentration (MIC), broth dilution method; format: cell-based
[2] = Anatomic pathology (heart and kidney histopathology) in mice; format: in vivo, CD-1 mice; settings: 20 mg/kg intravenously daily for 9 days, microscopic histopathology on day 10
Outline: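 Juvenile CD-1 mice (20 days old; 5 vehicle, 5 treated) received glycopeptide antibiotic 20 mg/kg i.v. daily for 9 days. Necropsied tissues formalin-fixed, paraffin-embedded, H&E stained and examined microscopically; findings graded slight to severe versus controls.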

[3] = tested on: Staphylococcus aureus-SMITH (GC 4543); assay: Acute lethal infection in mice (ED50); format: in vivo; settings: female CD-1 mice, intraperitoneal challenge, intravenous dose 30 min. after infection, 7 day survival ratios
Outline: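 Female CD-1 mice challenged intraperitoneally with a bacterial dose lethal to untreated controls within 24-48 h. Compound given intravenously in saline or 5% dextrose 30 min post-infection, five mice per dose; ED50 from 7-day survival pooled over 3 tests.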

Enterococcus sp. = assay: In vitro antibacterial evaluation: minimum inhibitory concentration (MIC), broth dilution method; format: cell-based
Outline: (§1)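 MIC by broth dilution in Mueller-Hinton II medium following NCCLS M7-A2. Inoculum was 5×10^5 CFU/mL and antibiotic was tested over 64-0.06 μg/mL. Gram-positive panel included clinical isolates resistant to methicillin, penicillin and/or vancomycin.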

Staphylococcus sp. = assay: as above; format: cell-based; settings: 18 hours at 35° C.
Outline: as §1

Escherichia coli [4] = assay: as above; format: cell-based; remark: listed apart in the source
Outline: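 NCCLS M7-A2 broth dilution with Mueller-Hinton II, testing 64-0.06 μg/mL antibiotic against 5×10^5 CFU/mL inocula. Test strains include recent methicillin-, penicillin- or vancomycin-resistant clinical isolates. MIC is the lowest concentration preventing growth.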

Streptococcus sp. = assay: as above; format: cell-based; settings: 18 hours at 35° C.
Outline: as §1

[5] = Enterococcus faecalis (ATCC 29212)
[6] = Enterococcus faecalis (GC 4553)
[7] = Enterococcus faecalis (GC 4554)
[8] = Enterococcus faecalis (GC 6189)
[9] = Staphylococcus aureus (ATCC 29213)
[10] = Staphylococcus aureus (GC 1131)
[11] = Staphylococcus aureus (GC 3051)
[12] = Staphylococcus aureus (GC 3053)
[13] = Staphylococcus aureus (GC 4541)
[14] = Staphylococcus aureus (GC 4542)
[15] = Staphylococcus aureus (GC 4544)
[16] = Staphylococcus aureus (GC 4545)

CC(C)CC(=O)OC1C(OC2C(CO)OC(Oc3ccc(CC4NC(=O)C(C(C)c5ccccc5)NC(=O)CNC(=O)C(CO)NC(=O)C(CC5CNC(=N)N5C5OC(CO)C(O)C(O)C5O)NC(=O)C(CC5CNC(=N)N5)NC4=O)cc3)C(O)C2O)OC(CO)C(O)C1O (stereo not shown) [Example 277b]
MIC Escherichia coli (ATCC 25922) (Escherichia coli [1]): >64 µg/mL | Anatomical Pathology (Day 10), Heart [2]: 0 | Anatomical Pathology (Day 10), Kidney [2]: + | median effective dose (ED50), Staphylococcus aureus-SMITH (GC 4543) [3]: >8 | MIC Enterococcus avium (GC 4558) (Enterococcus sp.; Enterococcus avium (GC 4558)): >64 µg/mL | MIC Enterococcus faecalis (ATCC 29212) (Enterococcus sp.; [5]): >64 µg/mL | MIC Enterococcus faecalis (GC 4553) (Enterococcus sp.; [6]): >64 µg/mL | MIC Enterococcus faecalis (GC 4554) (Enterococcus sp.; [7]): >64 µg/mL | MIC Enterococcus faecalis (GC 6189) (Enterococcus sp.; [8]): >64 µg/mL | MIC Enterococcus faecium (GC 2243) (Enterococcus sp.; Enterococcus faecium (GC 2243)): >64 µg/mL | MIC Enterococcus faecium (GC 4556) (Enterococcus sp.; Enterococcus faecium (GC 4556)): >64 µg/mL | MIC Enterococcus faecium (GC 4557) (Enterococcus sp.; Enterococcus faecium (GC 4557)): >64 µg/mL | MIC Coagulase Negative Staphylococcus (GC 4547) (Staphylococcus sp.): >64 µg/mL | MIC Coagulase Negative Staphylococcus (GC 4547) (Staphylococcus sp.; broth dilution): >64 µg/mL | MIC Coagulase Negative Staphylococcus (GC 4548) (Staphylococcus sp.): >64 µg/mL | MIC Coagulase Negative Staphylococcus (GC 4548) (Staphylococcus sp.; broth dilution): >64 µg/mL | MIC Coagulase Negative Staphylococcus (GC 4549) (Staphylococcus sp.): >64 µg/mL | MIC Coagulase Negative Staphylococcus (GC 4549) (Staphylococcus sp.; broth dilution): >64 µg/mL | MIC Coagulase Negative Staphylococcus (GC 4551) (Staphylococcus sp.): >64 µg/mL | MIC Coagulase Negative Staphylococcus (GC 4551) (Staphylococcus sp.; broth dilution): >64 µg/mL | MIC Coagulase Negative Staphylococcus (GC 6257) (Staphylococcus sp.): >64 µg/mL | MIC Coagulase Negative Staphylococcus (GC 6257) (Staphylococcus sp.; broth dilution): >64 µg/mL | MIC Staphylococcus aureus (ATCC 29213) (Staphylococcus sp.; [9]): >64 µg/mL | MIC Staphylococcus aureus (ATCC 29213) (Staphylococcus sp.; Staphylococcus aureus (ATCC 29213), broth dilution): >64 µg/mL | MIC Staphylococcus aureus (GC 1131) (Staphylococcus sp.; [10]): >64 µg/mL | MIC Staphylococcus aureus (GC 1131) (Staphylococcus sp.; Staphylococcus aureus (GC 1131), broth dilution): >64 µg/mL | MIC Staphylococcus aureus (GC 3051) (Staphylococcus sp.; [11]): >64 µg/mL | MIC Staphylococcus aureus (GC 3051) (Staphylococcus sp.; Staphylococcus aureus (GC 3051), broth dilution): >64 µg/mL | MIC Staphylococcus aureus (GC 3053) (Staphylococcus sp.; [12]): >64 µg/mL | MIC Staphylococcus aureus (GC 3053) (Staphylococcus sp.; Staphylococcus aureus (GC 3053), broth dilution): >64 µg/mL | MIC Staphylococcus aureus (GC 4541) (Staphylococcus sp.; [13]): >64 µg/mL | MIC Staphylococcus aureus (GC 4541) (Staphylococcus sp.; Staphylococcus aureus (GC 4541), broth dilution): >64 µg/mL | MIC Staphylococcus aureus (GC 4542) (Staphylococcus sp.; [14]): >64 µg/mL | MIC Staphylococcus aureus (GC 4542) (Staphylococcus sp.; Staphylococcus aureus (GC 4542), broth dilution): >64 µg/mL | MIC Staphylococcus aureus (GC 4544) (Staphylococcus sp.; [15]): >64 µg/mL | MIC Staphylococcus aureus (GC 4544) (Staphylococcus sp.; Staphylococcus aureus (GC 4544), broth dilution): >64 µg/mL | MIC Staphylococcus aureus (GC 4545) (Staphylococcus sp.; [16]): >64 µg/mL | MIC Staphylococcus aureus (GC 4545) (Staphylococcus sp.; Staphylococcus aureus (GC 4545), broth dilution): >64 µg/mL | MIC Staphylococcus aureus-SMITH (GC 4543) (Staphylococcus sp.): >64 µg/mL | MIC Staphylococcus aureus-SMITH (GC 4543) (Staphylococcus sp.; broth dilution): >64 µg/mL | MIC Staphylococcus haemolyticus (GC 4546) (Staphylococcus sp.): >64 µg/mL | MIC Staphylococcus haemolyticus (GC 4546) (Staphylococcus sp.; broth dilution): >64 µg/mL | MIC Escherichia coli (GC 4559) (Escherichia coli [4]): >64 µg/mL | MIC Escherichia coli (GC 4560) (Escherichia coli [4]): 32 µg/mL (≈ 23.7 µM)

β-O-[(N-Methyl-2-methylpropylamino)carbonyl]-cyclo[glycyl-β-methylphenylalanyl-O-(4-O-hexopyranosylhexopyranosyl)tyrosyl-3-(2-iminoimidazolidin-4-yl)seryl-3-(3-hexopyranosyl-2-iminoimidazolidin-4-yl)serylseryl] [Example 255a]
MIC Escherichia coli (ATCC 25922) (Escherichia coli [1]): >0.5 µg/mL | MIC Enterococcus avium (GC 4558) (Enterococcus sp.; Enterococcus avium (GC 4558)): >0.5 µg/mL | MIC Enterococcus faecalis (ATCC 29212) (Enterococcus sp.; [5]): >0.5 µg/mL | MIC Enterococcus faecalis (GC 2242) (Enterococcus sp.; Enterococcus faecalis (GC 2242), 18 hours at 35° C.): >0.5 µg/mL | MIC Enterococcus faecalis (GC 2691) (Enterococcus sp.; Enterococcus faecalis (GC 2691), 18 hours at 35° C.): >0.5 µg/mL | MIC Enterococcus faecalis (GC 3059) (Enterococcus sp.; Enterococcus faecalis (GC 3059), 18 hours at 35° C.): >0.5 µg/mL | MIC Enterococcus faecalis (GC 4552) (Enterococcus sp.; Enterococcus faecalis (GC 4552), 18 hours at 35° C.): >0.5 µg/mL | MIC Enterococcus faecalis (GC 4553) (Enterococcus sp.; [6]): >0.5 µg/mL | MIC Enterococcus faecalis (GC 4554) (Enterococcus sp.; [7]): >0.5 µg/mL | MIC Enterococcus faecalis (GC 6189) (Enterococcus sp.; [8]): >0.5 µg/mL | MIC Enterococcus faecium (GC 2243) (Enterococcus sp.; Enterococcus faecium (GC 2243)): >64 µg/mL | MIC Enterococcus faecium (GC 4556) (Enterococcus sp.; Enterococcus faecium (GC 4556)): >64 µg/mL | MIC Enterococcus faecium (GC 4557) (Enterococcus sp.; Enterococcus faecium (GC 4557)): 32 µg/mL | MIC Enterococcus faecalis (ATCC 29212) (Enterococcus sp.; broth dilution, 18 hours at 35° C., strain ATCC 29212): >0.5 µg/mL | MIC Enterococcus faecalis (GC 2242) (Enterococcus sp.; broth dilution, 18 hours at 35° C., strain GC 2242): >0.5 µg/mL | MIC Enterococcus faecium (GC 2243) (Enterococcus sp.; broth dilution, 18 hours at 35° C., strain GC 2243): >64 µg/mL | MIC Enterococcus faecalis (GC 2691) (Enterococcus sp.; broth dilution, 18 hours at 35° C., strain GC 2691): >0.5 µg/mL | MIC Enterococcus faecalis (GC 3059) (Enterococcus sp.; broth dilution, 18 hours at 35° C., strain GC 3059): >0.5 µg/mL | MIC Enterococcus faecalis (GC 4552) (Enterococcus sp.; broth dilution, 18 hours at 35° C., strain GC 4552): >0.5 µg/mL | MIC Enterococcus faecalis (GC 4553) (Enterococcus sp.; broth dilution, 18 hours at 35° C., strain GC 4553): >0.5 µg/mL | MIC Enterococcus faecalis (GC 4554) (Enterococcus sp.; broth dilution, 18 hours at 35° C., strain GC 4554): >0.5 µg/mL | MIC Enterococcus faecium (GC 4556) (Enterococcus sp.; broth dilution, 18 hours at 35° C., strain GC 4556): >64 µg/mL | MIC Enterococcus faecium (GC 4557) (Enterococcus sp.; broth dilution, 18 hours at 35° C., strain GC 4557): 32 µg/mL | MIC Enterococcus avium (GC 4558) (Enterococcus sp.; broth dilution, 18 hours at 35° C., strain GC 4558): >0.5 µg/mL | MIC Enterococcus faecalis (GC 6189) (Enterococcus sp.; broth dilution, 18 hours at 35° C., strain GC 6189): >0.5 µg/mL | MIC Streptococcus agalactiae (GC 4564) (Streptococcus sp.; Streptococcus agalactiae (GC 4564)): 64 µg/mL | MIC Streptococcus pneumoniae (GC 4565) (Streptococcus sp.; Streptococcus pneumoniae (GC 4565)): 32 µg/mL | MIC Streptococcus pyogenes (GC 4563) (Streptococcus sp.; Streptococcus pyogenes (GC 4563)): 32 µg/mL | MIC Streptococcus pyogenes (GC 4563) (Streptococcus sp.; broth dilution, strain GC 4563): 32 µg/mL | MIC Streptococcus agalactiae (GC 4564) (Streptococcus sp.; broth dilution, strain GC 4564): 64 µg/mL | MIC Streptococcus pneumoniae (GC 4565) (Streptococcus sp.; broth dilution, strain GC 4565): 32 µg/mL | MIC Coagulase Negative Staphylococcus (GC 4547) (Staphylococcus sp.): 64 µg/mL | MIC Coagulase Negative Staphylococcus (GC 4548) (Staphylococcus sp.): >64 µg/mL | MIC Coagulase Negative Staphylococcus (GC 4549) (Staphylococcus sp.): 64 µg/mL | MIC Coagulase Negative Staphylococcus (GC 4551) (Staphylococcus sp.): >64 µg/mL | MIC Coagulase Negative Staphylococcus (GC 6257) (Staphylococcus sp.): 64 µg/mL | MIC Staphylococcus aureus (ATCC 29213) (Staphylococcus sp.; [9]): >0.5 µg/mL | MIC Staphylococcus aureus (GC 1131) (Staphylococcus sp.; [10]): >0.5 µg/mL | MIC Staphylococcus aureus (GC 3051) (Staphylococcus sp.; [11]): 0.5 µg/mL | MIC Staphylococcus aureus (GC 3053) (Staphylococcus sp.; [12]): 0.5 µg/mL | MIC Staphylococcus aureus (GC 4541) (Staphylococcus sp.; [13]): >0.5 µg/mL | MIC Staphylococcus aureus (GC 4542) (Staphylococcus sp.; [14]): >0.5 µg/mL | MIC Staphylococcus aureus (GC 4544) (Staphylococcus sp.; [15]): >0.5 µg/mL | MIC Staphylococcus aureus (GC 4545) (Staphylococcus sp.; [16]): >0.5 µg/mL | MIC Staphylococcus aureus-SMITH (GC 4543) (Staphylococcus sp.): >0.5 µg/mL | MIC Staphylococcus haemolyticus (GC 4546) (Staphylococcus sp.): 64 µg/mL | MIC Staphylococcus aureus (ATCC 29213) (Staphylococcus sp.; broth dilution, strain ATCC 29213): >0.5 µg/mL | MIC Staphylococcus aureus (GC 1131) (Staphylococcus sp.; broth dilution, strain GC 1131): >0.5 µg/mL | MIC Staphylococcus aureus (GC 3051) (Staphylococcus sp.; broth dilution, strain GC 3051): 0.5 µg/mL | MIC Staphylococcus aureus (GC 3053) (Staphylococcus sp.; broth dilution, strain GC 3053): 0.5 µg/mL | MIC Staphylococcus aureus (GC 4541) (Staphylococcus sp.; broth dilution, strain GC 4541): >0.5 µg/mL | MIC Staphylococcus aureus (GC 4542) (Staphylococcus sp.; broth dilution, strain GC 4542): >0.5 µg/mL | MIC Staphylococcus aureus (GC 4544) (Staphylococcus sp.; broth dilution, strain GC 4544): >0.5 µg/mL | MIC Staphylococcus aureus (GC 4545) (Staphylococcus sp.; broth dilution, strain GC 4545): >0.5 µg/mL | MIC Escherichia coli (GC 4559) (Escherichia coli [4]): >0.5 µg/mL | MIC Escherichia coli (GC 4560) (Escherichia coli [4]): 0.5 µg/mL

Reference: patent US8247211B2, “Glycopeptide antibiotics” (American Cyanamid Company, priority 2001, dated 2012)
